Target: T1, MyD88^TIR (Homo sapiens, UniProt Q99836)
T1 construct: MyD88 (residues 148–296); 6xHis; made in house; host or cells: E. coli BL21 (DE3)
Assay: T‐Surf phage library (P8 and P3) selection against MyD88^TIR, four rounds, NGS read counts
Format: binding
Conditions: for Population: 4th round of selection against MyD88 TIR, share of NGS reads; for P8_MyD88 Rank (after) / P8_MyD88 Rank (before): P8 library; for P3_MyD88 Rank (after) / P3_MyD88 Rank (before): P3 library
Method in brief: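 Read counts come from NGS of phage pools enriched over four selection rounds on the plate‐coated TIR domain (5 µg mL^−1). Each round: 1 h phage binding at room temperature after 0.2% BSA blocking, Tween washes, acid elution, amplification in E. coli TG1 with M13KO7 helper.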

[1] = P8_MyD88: rank by count after grouping
[2] = P8_MyD88: rank by count before grouping
[3] = P8_MyD88: rank by NGS read count after grouping
[4] = P8_MyD88: rank by NGS read count before grouping
[5] = P8_MyD88 pool: P8 T-Surf phage library
[6] = selection against MyD88, rank after grouping
[7] = selection against MyD88, rank before grouping
[8] = selection against MyD88, rank by count after grouping
[9] = selection against MyD88, rank by count before grouping
[10] = selection against MyD88 TIR, rank by count after grouping
[11] = selection against MyD88 TIR, rank by count before grouping
[12] = 4R selection against MyD88, rank after grouping
[13] = 4R selection against MyD88, rank before grouping
[14] = P3_MyD88 pool: P3 T-Surf phage library
[15] = P3_MyD88: rank by count after grouping
[16] = P3_MyD88: rank by count before grouping

T1 sequence (Q99836 148-296): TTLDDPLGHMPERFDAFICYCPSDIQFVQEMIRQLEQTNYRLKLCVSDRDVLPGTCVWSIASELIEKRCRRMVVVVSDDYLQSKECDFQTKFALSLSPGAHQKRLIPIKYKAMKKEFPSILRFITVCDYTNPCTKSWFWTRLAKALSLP

## YASSSWYLDALVQILHARELF
[1]
  Rank (after): 388
[2]
  Rank (before): 1856

## YASSSWYLDELCIFC
[3]
  Rank (after): 951
[4]
  Rank (before): 1858

## YASSSWYLDELLQIA
[1]
  Rank (after): 402
[2]
  Rank (before): 1870

## YASSSWYLDELVRSLW
[3]
  Rank (after): 897
[4]
  Rank (before): 1860

## YASSSWYRFELVDILW
[3]
  Rank (after): 973
[4]
  Rank (before): 1874

## YASSTWALDELLQIFE
[1]
  Rank (after): 124
[2]
  Rank (before): 131
[5]
  Population: 0.0135%

## YASSTWWLRELLQIA
[1]
  Rank (after): 147
[2]
  Rank (before): 208

## YASSWWALEELLQILHARELF
[3]
  Rank (after): 931
[4]
  Rank (before): 1850

## YASSWWALEELLRILY
[6]
  P8_MyD88 Rank (after): 568
[7]
  P8_MyD88 Rank (before): 1849

## YASSWWLRELLQIA
[8]
  P8_MyD88 Rank (after): 686
[9]
  P8_MyD88 Rank (before): 1851

## YASYDDFWDRLIRMIE
[10]
  P8_MyD88 Rank (after): 248
[11]
  P8_MyD88 Rank (before): 439

## YASYDDNDYYWDPCAAASS
[6]
  P8_MyD88 Rank (after): 511
[7]
  P8_MyD88 Rank (before): 1815

## YASYDDNDYYWLTNVLLRLL
[8]
  P8_MyD88 Rank (after): 710
[9]
  P8_MyD88 Rank (before): 1778

## YASYDDNDYYWMTHVLLRHM
[8]
  P8_MyD88 Rank (after): 771
[9]
  P8_MyD88 Rank (before): 1816

## YASYDDNDYYWVTHVLLRFV
[10]
  P8_MyD88 Rank (after): 215
[11]
  P8_MyD88 Rank (before): 1788

## YASYDDNDYYWVTHVLLRH
[3]
  Rank (after): 997
[4]
  Rank (before): 1799

## YASYDDNDYYWVTHVLLRHM
[5]
  Population: 0.00732%

## YASYDDNDYYWVTHVLLRPM
[1]
  Rank (after): 139
[2]
  Rank (before): 255

## YASYDDNDYYWVTHVLLSR
[12]
  P8_MyD88 Rank (after): 638
[13]
  P8_MyD88 Rank (before): 1808

## YASYDDNDYYWVTPVLLRLV
[1]
  Rank (after): 435
[2]
  Rank (before): 1767

## YASYDDNYYYWVTHVLLRRL
[3]
  Rank (after): 969
[4]
  Rank (before): 1775

## YATSSWALNELVYLIM
[1]
  Rank (after): 146
[2]
  Rank (before): 162
[5]
  Population: 0.00886%

## YELAFSHCCLFEGHST
[3]
  Rank (after): 1007
[4]
  Rank (before): 1925

## YELDFSHFCCLMARR
[3]
  Rank (after): 929
[4]
  Rank (before): 1947

## YELDFSHFSLFEGQAT
[1]
  Rank (after): 463
[2]
  Rank (before): 1949

## YELDFSHFWLFDAGGDA
[10]
  P8_MyD88 Rank (after): 265
[11]
  P8_MyD88 Rank (before): 537

## YELDFSHFWLFDGHATGEA
[10]
  P8_MyD88 Rank (after): 239
[11]
  P8_MyD88 Rank (before): 1938

## YELDFSHFWLFDGQAGGEA
[10]
  P8_MyD88 Rank (after): 284
[11]
  P8_MyD88 Rank (before): 664

## YELDFSHFWLFEARGDA
[12]
  P8_MyD88 Rank (after): 636
[13]
  P8_MyD88 Rank (before): 1944

## YELDFSHFWLFEGPAG
[10]
  P8_MyD88 Rank (after): 245
[11]
  P8_MyD88 Rank (before): 538

## YELDFSHFWLFVGQAP
[3]
  Rank (after): 1008
[4]
  Rank (before): 1929

## YELVHVWSSKANSLVG
[14]
  Population: 0.0032%

## YFRNESEFIQEIVQWV
[1]
  Rank (after): 118
[2]
  Rank (before): 125
[5]
  Population: 0.0162%

## YGHESEIIKEIVDTIV
[14]
  Population: 0.00262%

## YHPLDLPRGKAIKPEILG
[15]
  Rank (after): 189
[16]
  Rank (before): 1615

## YIIWFEDIQLIHLLCD
[6]
  P8_MyD88 Rank (after): 564
[7]
  P8_MyD88 Rank (before): 2108

## YILYEDQTIKFVFRDFIQEL
[1]
  Rank (after): 385
[2]
  Rank (before): 988

## YITRFDDIQQIELFWD
[8]
  P8_MyD88 Rank (after): 688
[9]
  P8_MyD88 Rank (before): 2121

## YITWFDDIQQIQVFWV
[3]
  Rank (after): 978
[4]
  Rank (before): 2116

## YITWFEDFQQILLFWI
[3]
  Rank (after): 924
[4]
  Rank (before): 2117

## YKLALHFRDWLLGAYI
[8]
  P8_MyD88 Rank (after): 742
[9]
  P8_MyD88 Rank (before): 2138

## YKLALHFRDWLVGVH
[3]
  Rank (after): 901
[4]
  Rank (before): 2137

## YKLALHFRVWRVGVSI
[3]
  Rank (after): 883
[4]
  Rank (before): 2135

## YLEWPLDENQQLIFWF
[1]
  Rank (after): 477
[2]
  Rank (before): 1960

## YLKCGYPCFCDRLRFA
[12]
  P3_MyD88 Rank (after): 620
[13]
  P3_MyD88 Rank (before): 1566

## YLKVESWRQALEKAGKL
[10]
  P3_MyD88 Rank (after): 268
[11]
  P3_MyD88 Rank (before): 864

## YLKWAIRGFGIVCVL
[10]
  P3_MyD88 Rank (after): 238
[11]
  P3_MyD88 Rank (before): 862

## YLKWGSPWFWDRLRFGPIGQ
[6]
  P3_MyD88 Rank (after): 568
[7]
  P3_MyD88 Rank (before): 1571

## YLKWGYPRFWDRLRCA
[10]
  P3_MyD88 Rank (after): 216
[11]
  P3_MyD88 Rank (before): 1602

## YLKWGYPRFWDRLRFV
[8]
  P3_MyD88 Rank (after): 729
[9]
  P3_MyD88 Rank (before): 1603

## YLKWGYPRFWDRQRFP
[10]
  P3_MyD88 Rank (after): 282
[11]
  P3_MyD88 Rank (before): 1431

## YLKWGYPWFGIVCVL
[15]
  Rank (after): 166
[16]
  Rank (before): 855

## YLKWGYPWFWDRLP
[15]
  Rank (after): 142
[16]
  Rank (before): 572

## YLKWGYPWFWDRLRFA
[6]
  P8_MyD88 Rank (after): 571
[7]
  P8_MyD88 Rank (before): 2084

## YLKWGYPWFWDRLRYAM
[15]
  Rank (after): 97
[16]
  Rank (before): 342

## YLKWGYPWFWSKLRYAM
[15]
  Rank (after): 110
[16]
  Rank (before): 575

## YLKWGYRWYWDRLRFA
[6]
  P3_MyD88 Rank (after): 543
[7]
  P3_MyD88 Rank (before): 1576

## YLKWGYVVLGSSAFC
[8]
  P3_MyD88 Rank (after): 714
[9]
  P3_MyD88 Rank (before): 1574

## YLLAGDFWIFFTLLTA
[8]
  P8_MyD88 Rank (after): 738
[9]
  P8_MyD88 Rank (before): 1964

## YLLLGVFQTIFARRTA
[10]
  P8_MyD88 Rank (after): 276
[11]
  P8_MyD88 Rank (before): 1965

## YLLLNVFQIIFARGPE
[6]
  P8_MyD88 Rank (after): 546
[7]
  P8_MyD88 Rank (before): 2018

## YLLLRVLQTIFLRRTD
[3]
  Rank (after): 898
[4]
  Rank (before): 1967

## YLLLSEFHSELALRPL
[12]
  P8_MyD88 Rank (after): 637
[13]
  P8_MyD88 Rank (before): 2016

## YLLLSVFQTICALRTE
[3]
  Rank (after): 963
[4]
  Rank (before): 1999

## YLLLSVFQTIFARRTD
[5]
  Population: 0.00771%

## YLLLSVLHTRSARGYV
[3]
  Rank (after): 925
[4]
  Rank (before): 2010

## YLLRSLFQTLFPRRTE
[3]
  Rank (after): 1013
[4]
  Rank (before): 2020

## YLMWPQEEEEIPLFWH
[10]
  P8_MyD88 Rank (after): 257
[11]
  P8_MyD88 Rank (before): 447

## YLQDLDWFYERLVSLF
[1]
  Rank (after): 478
[2]
  Rank (before): 2080

## YLQWGYPCFWDRLRFA
[10]
  P3_MyD88 Rank (after): 251
[11]
  P3_MyD88 Rank (before): 1559

## YLQWGYSWFWDRLRFA
[10]
  P3_MyD88 Rank (after): 259
[11]
  P3_MyD88 Rank (before): 1558

## YLRADDIWVWEKLLYA
[12]
  P8_MyD88 Rank (after): 646
[13]
  P8_MyD88 Rank (before): 2040

## YLRADDLVLGKTAVC
[12]
  P8_MyD88 Rank (after): 643
[13]
  P8_MyD88 Rank (before): 2038

## YLRADDNDYYWVTHVLLRHL
[3]
  Rank (after): 983
[4]
  Rank (before): 2070

## YLRADDSCSWEKLRYA
[8]
  P8_MyD88 Rank (after): 694
[9]
  P8_MyD88 Rank (before): 2043

## YLRADDSWFEEKLLFA
[6]
  P8_MyD88 Rank (after): 574
[7]
  P8_MyD88 Rank (before): 2062

## YLRADDSWFWEKLLQIA
[6]
  P8_MyD88 Rank (after): 553
[7]
  P8_MyD88 Rank (before): 2056

Source: article PMC11714206, “Massively Parallel Screening of Toll/Interleukin‐1 Receptor (TIR)‐Derived Peptides Reveals Multiple Toll‐Like Receptors (TLRs)‐Targeting Immunomodulatory Peptides” (Advanced Science, 2024)
